According to paper PMC5516028, “Molecular tools for GABAA receptors: High affinity ligands for β1-containing subtypes” (Scientific Reports, 2017):
“And” between values parts separate entries of the source, which are not always exact repeats. Equal entries are not always repeated. Where two headings read alike, the source gives them in different places.

Tests used:
Assay type in all cases: cell-based
[1] = target: T1, α3β3γ2 GABAA receptors (Rattus norvegicus, UniProt P20236+P63079); test: Two electrode voltage clamp in Xenopus laevis oocytes, α3β3γ2; details: for EC50: co-applied with GABA EC3-5; for activity at 0.001 µM: read-out: efficacy, % of control current (GABA EC3-5 = 100%), 1 nM; for activity at 0.1 µM: read-out: efficacy, % of control current (GABA EC3-5 = 100%), 100 nM; for activity at 10 µM: read-out: efficacy, % of control current (GABA EC3-5 = 100%), 10 µM
T1 construct: expressed in transfected cells; host or cells: Xenopus laevis oocytes, mRNA injected
Source text: (§1) cDNA’s of rat GABAA receptor subunits α1, α4, β1, β2, β3 and γ2S were cloned as described. cDNAs of the rat subunits α2, α3 and α5 were gifts from P. Malherbe, that of α6 and γ1 were gifts of P. Seeburg and that of δ was a gift of C. Czajkowski. The mutants were constructed using the Q5 Site-Directed Mutagenesis Kit (New England Biolabs) following manufacturer’s instruction. We used the wild-type rat β3-pCI vector as template and the primers […] and […] resulting in a substitution of amino acid N41 (AAC) to R (AGG). We used the wild-type rat β1-pCI vector as template and the primers […] and […] resulting in a substitution of amino acid R41 (CGG) to N (AAC). The mutated subunits were confirmed by sequencing.
(§2) In vitro transcription of mRNA was based on the cDNA expression vectors encoding for rat GABAA receptor subunits α1–6, β1-3, γ1,2, δ and the two β mutants (β1R41N and β3N41R)[40]. After linearizing the cDNA vectors with appropriate restriction endonucleases, the cDNA was purified and concentrated with the DNA Clean and Contentrator ^TM Kit (Zymoresearch, Catalog No. D4005). Capped transcripts of the purified cDNA were produced using the mMESSAGE mMACHINE® T7 transcription kit (Ambion, TX, USA) and polyadenylated using the Ambion PolyA tailing kit (Ambion). After transcription and polyadenylation the RNA was purified with the MEGAclear ^TM Kit (Ambion, Catalog No. AM1908). The final RNA concentration was measured on NanoDrop® ND-1000 and finally diluted and stored in diethylpyrocarbonate-treated water at −80 °C. For the microinjection, the RNA of αβ receptor combinations was mixed at 1:1 ratio (which leads to αβ receptors that consist of predominantly 3 beta and 2 alpha subunits[27]), for αkβlγm (k = 1–3, l = 1, 3, m = 1, 2) receptors at 1:1:5 ratio, for αkβ3γ2 (k = 4–6) and αkβlδ (k = 1, 4 and 6, l = 1, 3) receptor combinations at 3:1:5 ratio.
(§3) Mature female Xenopus laevis (Nasco, WI) were anesthetized in a bath of ice-cold 0.17% Tricain (Ethyl-m-aminobenzoate, Sigma, MO) before decapitation in full accordance with all rules of the Austrian animal protection law (see http://www.ris.bka.gv.at/Dokumente/BgblAuth/BGBLA_2012_I_114/BGBLA_2012_I_114.pdf) and the Austrian animal experiment by-laws (see https://www.ris.bka.gv.at/Dokumente/BgblAuth/BGBLA_2012_II_522/BGBLA_2012_II_522.pdf) which implement the European Directive 2010/63/EU (see http://eur-lex.europa.eu/LexUriServ/LexUriServ.do?uri=OJ:L:2010:276:0033:0079:en:PDF) into the Austrian law (all information accessed on July 27, 2016). The frog’s ovaries were transferred to ND96 medium (96 mM NaCl, 2 mM KCl, 1 mM MgCl2, 5 mM HEPES; pH 7.5). Stage 5–6 oocytes with the follicle cell layer around them were roughly dissected with forceps into packages of 10–15 cells and washed in Ca^2+-free ND96 medium. Cells were then digested with collagenase (type IA, Sigma, NO, 1 mg/mL ND96) at 18 °C shaking at 30 rpm for 30–60 minutes and gently defolliculated with the aid of a glass pipette with appropriate tip diameter and a platinum loop. Defolliculated cells were stored at 18 °C for at least 6 hours in ND96 solution containing penicillin G (10000 IU/100 mL) and streptomycin (10 mg/100 mL) in order to preselect and exclude damaged cells from further treatment. Healthy defolliculated oocytes were injected with an aqueous solution of mRNA. A total of 4.5 ng of mRNA per oocyte was injected with a Nanoject II (Drummond). After injection of mRNA, oocytes were incubated at 18 °C (ND96 + antibiotic) for 2–3 days for αβ receptors and for 3–4 days for αβγ or αβδ receptors before recording. When cells were measured at later time points, oocytes were stored at +4 °C instead of 18 °C.
(§4) For electrophysiological recordings, oocytes were placed on a nylon-grid in a bath of Ca^2+-containing NDE solution medium [96 mM NaCl, 5 mM HEPES-NaOH (pH 7.5), 2 mM KCl, 1 mM MgCl2, 1.8 mM CaCl2].

[2] = target: T2, α1β1R41N GABAA receptors (Rattus norvegicus, UniProt P15431+P62813, R66N); test: Two electrode voltage clamp in Xenopus laevis oocytes, mutant α1β1R41N; details: for current as % of control at 0.1 µM: 100nM; for current as % of control at 0.1 µM / current as % of control at 0.3 µM / current as % of control at 1 µM / current as % of control at 3 µM / current as % of control at 10 µM / current as % of control at 30 µM: read-out: % of control current at EC3-5; for current as % of control at 0.3 µM: 300nM
T2 construct: expressed in transfected cells; host or cells: Xenopus laevis oocytes, mRNA injected
Source text: as §1, §2, §3, §4

[3] = target: T3, α1β1 GABAA receptors (Rattus norvegicus, UniProt P15431+P62813); test: Two electrode voltage clamp in Xenopus laevis oocytes, α1β1; details: for activity at 0.3 µM: 300 nM
T3 construct: expressed in transfected cells; host or cells: Xenopus laevis oocytes, mRNA injected
Source text: as §1, §2, §3, §4

[4] = target: T4, α1β3N41R GABAA receptors (Rattus norvegicus, UniProt P62813+P63079, N66R); test: Two electrode voltage clamp in Xenopus laevis oocytes, mutant α1β3N41R; details: co-applied with GABA EC3-5, read-out: EC50 values for the mutated receptors
T4 construct: expressed in transfected cells; host or cells: Xenopus laevis oocytes, mRNA injected
Source text: as §1, §2, §3, §4

[5] = target: T5, α1β3 GABAA receptors (Rattus norvegicus, UniProt P62813+P63079); test: Two electrode voltage clamp in Xenopus laevis oocytes, α1β3; details: for activity at 0.001 µM: 1 nM; for activity at 0.01 µM: 10 nM; for activity at 0.3 µM: 300 nM
T5 construct: expressed in transfected cells; host or cells: Xenopus laevis oocytes, mRNA injected
Source text: as §1, §2, §3, §4

[6] = target: T6, α1β2 GABAA receptors (Rattus norvegicus, UniProt P62813+P63138); test: Two electrode voltage clamp in Xenopus laevis oocytes, α1β2
T6 construct: expressed in transfected cells; host or cells: Xenopus laevis oocytes, mRNA injected
Source text: as §1, §2, §3, §4

[7] = read-out: efficacy, % of control current (GABA EC3-5 = 100%), α1β1
[8] = α1β1, co-applied with GABA EC3-5, read-out: EC50
[9] = read-out: efficacy, % of control current (GABA EC3-5 = 100%), α1β3
[10] = read-out: efficacy, % of control current (GABA EC3-5 = 100%), α1β3, 100 nM
[11] = α1β3, co-applied with GABA EC3-5, read-out: EC50
[12] = α1β1 (α1+/β1− interface), read-out: EC50

T1 sequence (P20236 29-493): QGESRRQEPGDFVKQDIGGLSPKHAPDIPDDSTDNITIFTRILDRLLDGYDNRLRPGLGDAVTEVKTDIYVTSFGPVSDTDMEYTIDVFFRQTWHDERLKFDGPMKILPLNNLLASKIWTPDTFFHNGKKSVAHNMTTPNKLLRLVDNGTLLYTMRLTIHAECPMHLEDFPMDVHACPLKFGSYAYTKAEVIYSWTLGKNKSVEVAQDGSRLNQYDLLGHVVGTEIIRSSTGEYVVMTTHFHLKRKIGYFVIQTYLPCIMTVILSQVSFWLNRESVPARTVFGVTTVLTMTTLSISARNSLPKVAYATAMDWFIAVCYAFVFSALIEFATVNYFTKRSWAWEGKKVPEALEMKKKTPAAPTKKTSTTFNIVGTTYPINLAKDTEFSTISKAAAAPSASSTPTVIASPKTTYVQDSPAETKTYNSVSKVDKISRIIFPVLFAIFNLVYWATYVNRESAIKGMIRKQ
T1 sequence (P63079 26-473): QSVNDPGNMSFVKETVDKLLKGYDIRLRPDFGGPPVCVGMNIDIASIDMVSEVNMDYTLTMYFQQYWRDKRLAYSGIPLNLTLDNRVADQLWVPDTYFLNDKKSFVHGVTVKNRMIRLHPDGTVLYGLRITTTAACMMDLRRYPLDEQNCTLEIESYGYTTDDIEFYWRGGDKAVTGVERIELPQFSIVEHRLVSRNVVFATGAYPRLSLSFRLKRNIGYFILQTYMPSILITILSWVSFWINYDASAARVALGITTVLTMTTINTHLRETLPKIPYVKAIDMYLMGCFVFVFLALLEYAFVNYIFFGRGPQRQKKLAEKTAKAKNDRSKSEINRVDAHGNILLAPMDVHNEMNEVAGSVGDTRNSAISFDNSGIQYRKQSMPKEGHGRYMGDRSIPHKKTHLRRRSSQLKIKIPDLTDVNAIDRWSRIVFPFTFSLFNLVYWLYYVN
T1 sequence (P18508 39-466 partner): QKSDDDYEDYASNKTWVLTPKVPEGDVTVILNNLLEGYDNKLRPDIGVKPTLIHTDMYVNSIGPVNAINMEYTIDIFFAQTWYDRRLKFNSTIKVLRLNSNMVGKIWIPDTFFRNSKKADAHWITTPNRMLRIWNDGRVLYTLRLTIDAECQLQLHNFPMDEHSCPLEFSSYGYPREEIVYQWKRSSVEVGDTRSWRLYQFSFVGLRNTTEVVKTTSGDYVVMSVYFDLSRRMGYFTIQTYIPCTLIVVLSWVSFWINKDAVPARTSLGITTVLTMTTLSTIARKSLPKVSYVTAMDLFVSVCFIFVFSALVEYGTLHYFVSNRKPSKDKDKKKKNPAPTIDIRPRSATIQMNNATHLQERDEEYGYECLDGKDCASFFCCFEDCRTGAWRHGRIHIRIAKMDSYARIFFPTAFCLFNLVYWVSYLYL
T4 sequence (P62813 28-455): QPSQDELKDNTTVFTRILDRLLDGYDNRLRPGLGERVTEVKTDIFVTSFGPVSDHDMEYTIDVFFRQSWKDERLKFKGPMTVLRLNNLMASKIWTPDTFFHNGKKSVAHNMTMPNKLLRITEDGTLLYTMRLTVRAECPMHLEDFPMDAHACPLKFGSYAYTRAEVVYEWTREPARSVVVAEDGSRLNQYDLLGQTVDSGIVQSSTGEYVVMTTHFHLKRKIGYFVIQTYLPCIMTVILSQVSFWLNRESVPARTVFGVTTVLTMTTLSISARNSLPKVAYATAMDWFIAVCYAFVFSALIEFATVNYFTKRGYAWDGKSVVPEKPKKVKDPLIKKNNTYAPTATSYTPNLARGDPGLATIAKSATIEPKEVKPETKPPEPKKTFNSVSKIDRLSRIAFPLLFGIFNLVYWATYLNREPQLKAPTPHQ
T4 sequence (P63079 26-473 N66R): as the sequence (P63079 26-473) above, with N41R counted along it
T2 sequence (P62813 28-455): as the sequence (P62813 28-455) above
T2 sequence (P15431 26-474 R66N): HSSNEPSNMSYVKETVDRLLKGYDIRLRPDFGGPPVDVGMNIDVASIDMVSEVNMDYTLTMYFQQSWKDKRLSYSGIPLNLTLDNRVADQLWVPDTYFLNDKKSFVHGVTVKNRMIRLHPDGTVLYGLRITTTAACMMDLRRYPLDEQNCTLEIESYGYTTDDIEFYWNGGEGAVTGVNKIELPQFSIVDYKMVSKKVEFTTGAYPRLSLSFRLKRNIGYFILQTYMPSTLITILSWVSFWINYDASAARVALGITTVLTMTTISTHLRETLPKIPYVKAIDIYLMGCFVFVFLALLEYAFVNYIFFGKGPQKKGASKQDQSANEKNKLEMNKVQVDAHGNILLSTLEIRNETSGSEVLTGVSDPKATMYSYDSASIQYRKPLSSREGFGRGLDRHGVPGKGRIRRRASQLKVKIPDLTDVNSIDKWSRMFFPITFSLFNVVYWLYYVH
T3 sequence (P62813 28-455): as the sequence (P62813 28-455) above
T3 sequence (P15431 26-474): as the sequence (P15431 26-474 R66N) above, with N41R counted along it
T6 sequence (P62813 28-455): as the sequence (P62813 28-455) above
T6 sequence (P63138 25-474 limits assumed): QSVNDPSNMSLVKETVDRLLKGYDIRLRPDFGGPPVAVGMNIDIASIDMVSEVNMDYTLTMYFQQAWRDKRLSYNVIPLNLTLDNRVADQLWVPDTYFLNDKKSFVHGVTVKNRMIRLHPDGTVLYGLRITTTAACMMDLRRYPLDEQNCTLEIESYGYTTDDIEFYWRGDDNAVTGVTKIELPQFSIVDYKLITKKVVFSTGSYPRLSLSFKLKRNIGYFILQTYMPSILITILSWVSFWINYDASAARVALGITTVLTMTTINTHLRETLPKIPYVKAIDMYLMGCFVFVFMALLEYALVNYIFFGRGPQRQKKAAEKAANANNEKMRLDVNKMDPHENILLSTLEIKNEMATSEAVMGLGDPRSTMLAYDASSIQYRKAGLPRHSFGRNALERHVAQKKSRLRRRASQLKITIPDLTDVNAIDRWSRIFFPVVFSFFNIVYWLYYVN
T5 sequence (P62813 28-455): as the sequence (P62813 28-455) above
T5 sequence (P63079 26-473): as the sequence (P63079 26-473) above

EC50 [1] | activity at 0.001 µM [1] [%] | activity at 0.1 µM [1] [%] | activity at 10 µM [1] [%] | current as % of control at 0.1 µM [2] [%] | current as % of control at 0.3 µM [2] [%] | current as % of control at 1 µM [2] [%] | current as % of control at 3 µM [2] [%] | current as % of control at 10 µM [2] [%] | current as % of control at 30 µM [2] [%] | activity at 0.3 µM [3, 7] [%] | Hill slope (nH) ([3]; α1β1) | EC50 [3, 8] [nM] | EC50 [4] [nM] | activity at 0.01 µM [5, 9] [%] | activity at 3 µM [5, 9] [%] | Hill slope (nH) ([5]; α1β3) | EC50 [5, 11] | EC50 [6] [nM] | Hill slope (nH) ([6]; α1β2) | Structure (SMILES) | further results
7200 nM | 100 | 109 ± 1 | 305 ± 71 | 70 ± 5 | 62 ± 8 | 62 ± 8 | 60 ± 9 | 60 ± 10 | 60 ± 8 | 194 ± 23.3 | 1.0±0.4 | 770 | 3440 | 100.7 ± 0.5 | 276 ± 41.7 | 1.9±0.6 | 2390 nM | 4310 | 2.0±0.9 | Cc1ccc(-n2nc3c4cc(Cl)ccc4[nH]cc-3c2=O)cc1 [Compound 2, 8-Chloro-2-(4-methylphenyl)-2H-pyrazolo[4,3-c]quinolin-3(5H)-one] | EC50 ([3]; α1β1, log of EC50, sign as printed, read-out: LogEC50 (converted)): 759 nM; activity at 0.001 µM [5, 9]: 100.1 ± 0.1%; activity at 0.003 µM ([5]; read-out: efficacy, % of control current (GABA EC3-5 = 100%), α1β3, 3 nM): 100.1 ± 0.1%; activity at 0.1 µM [5, 10]: 109 ± 2.2%; activity at 0.3 µM [5, 9]: 122 ± 5.4%; activity at 1 µM ([5]; read-out: efficacy, % of control current (GABA EC3-5 = 100%), α1β3, 1 µM): 151 ± 11.5%; activity at 10 µM ([5]; read-out: efficacy, % of control current (GABA EC3-5 = 100%), α1β3, 10 µM): 372 ± 40.1%; EC50 ([5]; α1β3, log of EC50, sign as printed, read-out: LogEC50 (converted)): 2400 nM and 2510 nM; activity at 0.1 µM ([6]; read-out: efficacy, % of control current (GABA EC3-5 = 100%), α1β2, 100 nM): 105 ± 1.4%; activity at 1 µM ([6]; read-out: efficacy, % of control current (GABA EC3-5 = 100%), α1β2, 1 µM): 134 ± 8.2%
 |  |  |  | 80 ± 10 | 100 ± 10 | 140 ± 16 | 195 ± 20 | 205 ± 20 | 150 ± 10 | 292 ± 24.5 | 1.3±0.4 |  | 980 | 106 ± 1.6 | 839 ± 105 | 1.5±0.5 | 1840 nM | 1150 | 1.1±0.3 | COc1ccc(-n2nc3c4cc(Cl)ccc4[nH]cc-3c2=O)cc1 [Compound 1, 8-Chloro-2-(4-methoxyphenyl)-2H-pyrazolo[4,3-c]quinolin-3(5H)-one] | EC50 ([2]; co-applied with GABA EC3-5): 800 nM; activity at 0.001 µM ([3]; read-out: efficacy, % of control current (GABA EC3-5 = 100%), α1β1, 1 nM): 102 ± 1.7%; activity at 0.003 µM ([3]; read-out: efficacy, % of control current (GABA EC3-5 = 100%), α1β1, 3 nM): 100.5 ± 0.5%; activity at 0.03 µM ([3]; read-out: efficacy, % of control current (GABA EC3-5 = 100%), α1β1, 30 nM): 138 ± 13.3%; activity at 30 µM ([3]; read-out: efficacy, % of control current (GABA EC3-5 = 100%), α1β1, 30 µM): 174 ± 34.2%; EC50 [3, 12]: 130 nM; activity at 0.001 µM ([6]; read-out: efficacy, % of control current (GABA EC3-5 = 100%), α1β2, 1 nM): 100%; activity at 10 µM ([6]; read-out: efficacy, % of control current (GABA EC3-5 = 100%), α1β2, 10 µM): 644 ± 57%
~1000 nM and 1200 nM | 100 | 108 ± 3.7 | 202 ± 23 | 70 ± 1 | 65 ± 6 | 85 ± 7 | 100 ± 8 | 125 ± 5 | 110 ± 10 | 299 ± 29.7 | 1.0±0.4 | 220 | 200 | 108 ± 5.1 | 254 ± 28.7 | 1.1±0.5 | 1470 nM and 2200 nM | 1050 | 2.0±0.7 | Nc1ccc(-n2nc3c4cc(Cl)ccc4[nH]cc-3c2=O)cc1 [Compound 3, 8-Chloro-2-(4-aminophenyl)-2H-pyrazolo[4,3-c]quinolin-3(5H)-one] | modulatory effects up to [1]: ~ 200%; activity at 0.01 µM ([1]; read-out: efficacy, % of control current (GABA EC3-5 = 100%), 10 nM): 101 ± 1%; activity at 0.3 µM ([1]; read-out: efficacy, % of control current (GABA EC3-5 = 100%), 300 nM): 104 ± 4%; activity at 1 µM ([1]; read-out: efficacy, % of control current (GABA EC3-5 = 100%), 1 µM): 133 ± 4%; activity at 30 µM ([1]; read-out: efficacy, % of control current (GABA EC3-5 = 100%), 30 µM): 195%; activity at 0.01 µM ([3]; read-out: efficacy, % of control current (GABA EC3-5 = 100%), α1β1, 10 nM): 116 ± 3.6%; activity at 10 µM ([3]; read-out: efficacy, % of control current (GABA EC3-5 = 100%), α1β1, 10 µM): 403 ± 50.9%; EC50 [3, 12]: ~200 nM; activity at 0.001 µM [5, 9]: 106 ± 1.9%; activity at 0.1 µM [5, 10]: 125 ± 4.6%; activity at 0.3 µM [5, 9]: 128 ± 8%; efficacy, % of control current (GABA EC3-5 = 100%) ([5]; α1β3, 100 nM, 0.1 µM): 117.8±5.9%; activity at 30 µM ([6]; read-out: efficacy, % of control current (GABA EC3-5 = 100%), α1β2, 30 µM): 106 ± 11.4%
